Each structure is given as a SMILES string.

For this assay, the target named is T1, JAK2 (JH1domain-catalytic, Y1007F,Y1008F) kinase (Homo sapiens, UniProt O60674, Y1007F/Y1008F).
T1 construct: JAK2 (JH1domain-catalytic, Y1007F,Y1008F) kinase was expressed as N-terminal fusion; made in house; host or cells: transiently transfected HEK293 cells
T1 sequence (O60674 849-1124 Y1007F/Y1008F limits assumed): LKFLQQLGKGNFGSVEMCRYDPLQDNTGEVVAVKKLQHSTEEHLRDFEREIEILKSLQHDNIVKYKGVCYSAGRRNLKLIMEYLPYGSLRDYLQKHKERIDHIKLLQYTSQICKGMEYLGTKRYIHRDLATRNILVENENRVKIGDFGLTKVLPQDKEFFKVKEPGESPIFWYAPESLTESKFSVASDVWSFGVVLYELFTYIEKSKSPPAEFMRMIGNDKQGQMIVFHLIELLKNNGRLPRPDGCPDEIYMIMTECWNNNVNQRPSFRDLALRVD
In words: JAK2 JH1 Domain Binding Assay. As to conditions: qPCR readout.
Broadly, the Kd is the free concentration of one partner at which half of the binding sites on the other are occupied at equilibrium, for simple one-to-one binding. Take `CN1CC[C@@H](n2nc(Nc3nc4ncc(Oc5cnc6scnc6c5)c(Cl)c4n3C)cc2C(C)(C)C)C1` [Example I-27, (R)—N-(5-(tert-butyl)-1-(1-methylpyrrolidin-3-yl)-1H-pyrazol-3-yl)-7-chloro-1-methyl-6-(thiazolo[5,4-b]pyridin-6-yloxy)-1H-imidazo[4,5-b]pyridin-2-amine]: the Kd lay in the range of 10 to 50 nM. As to `CN1CC[C@H](n2nc(Nc3nc4ncc(Oc5cnc6scnc6c5)c(Cl)c4n3C)cc2C(C)(C)C)C1` [Example I-28, (S)—N-(5-(tert-butyl)-1-(1-methylpyrrolidin-3-yl)-1H-pyrazol-3-yl)-7-chloro-1-methyl-6-(thiazolo[5,4-b]pyridin-6-yloxy)-1H-imidazo[4,5-b]pyridin-2-amine], the Kd fell in the range of 10 to 50 nM.

Molecule `Cn1c(Nc2cc(C(C)(C)C)n([C@H]3CCN(CCF)C3)n2)nc2ncc(Oc3cnn4ccncc34)c(Cl)c21` [Example I-29, (S)—N-(5-(tert-butyl)-1-(1-(2-fluoroethyl)pyrrolidin-3-yl)-1H-pyrazol-3-yl)-7-chloro-1-methyl-6-(pyrazolo[1,5-a]pyrazin-3-yloxy)-1H-imidazo[4,5-b]pyridin-2-amine] returned a Kd below 10 nM. The same measure for `Cn1c(Nc2cc(C(C)(C)C)n([C@@H]3CCN(CCF)C3)n2)nc2ncc(Oc3cnn4ccncc34)c(Cl)c21` [Example I-30, (R)—N-(5-(tert-butyl)-1-(1-(2-fluoroethyl)pyrrolidin-3-yl)-1H-pyrazol-3-yl)-7-chloro-1-methyl-6-(pyrazolo[1,5-a]pyrazin-3-yloxy)-1H-imidazo[4,5-b]pyridin-2-amine]: below 10 nM; for `CN1CC[C@H](n2nc(Nc3nc4ncc(Oc5cnn6ccncc56)c(Cl)c4n3C)cc2C(C)(C)C)C1` [Example I-31, (S)—N-(5-(tert-butyl)-1-(1-methylpyrrolidin-3-yl)-1H-pyrazol-3-yl)-7-chloro-1-methyl-6-(pyrazolo[1,5-a]pyrazin-3-yloxy)-1H-imidazo[4,5-b]pyridin-2-amine]: below 10 nM; for `CN1CC[C@@H](n2nc(Nc3nc4ncc(Oc5cnn6ccncc56)c(Cl)c4n3C)cc2C(C)(C)C)C1` [Example I-32, (R)—N-(5-(tert-butyl)-1-(1-methylpyrrolidin-3-yl)-1H-pyrazol-3-yl)-7-chloro-1-methyl-6-(pyrazolo[1,5-a]pyrazin-3-yloxy)-1H-imidazo[4,5-b]pyridin-2-amine]: below 10 nM. With `Cn1c(Nc2cc(C(C)(C)C)n(C3CC4(COC4)C3)n2)nc2ncc(Oc3cnn4ccnc4c3)c(Cl)c21` [Example I-33, N-(5-(tert-butyl)-1-(2-oxaspiro[3.3]heptan-6-yl)-1H-pyrazol-3-yl)-7-chloro-6-(imidazo[1,2-b]pyridazin-7-yloxy)-1-methyl-1H-imidazo[4,5-b]pyridin-2-amine] the figure was 10 to 50 nM; with `Cn1c(Nc2cc(C(C)(C)C)n(CC(F)F)n2)nc2ncc(Oc3cnn4ccncc34)c(Cl)c21` [Example I-34, N-(5-(tert-butyl)-1-(2,2-difluoroethyl)-1H-pyrazol-3-yl)-7-chloro-1-methyl-6-(pyrazolo[1,5-a]pyrazin-3-yloxy)-1H-imidazo[4,5-b]pyridin-2-amine], below 10 nM; with `CN1CC[C@H](n2nc(Nc3nc4ncc(Oc5cnn6ccnc6c5)c(Cl)c4n3C)cc2C(C)(C)C)C1` [Example I-35, (S)—N-(5-(tert-butyl)-1-(1-methylpyrrolidin-3-yl)-1H-pyrazol-3-yl)-7-chloro-6-(imidazo[1,2-b]pyridazin-7-yloxy)-1-methyl-1H-imidazo[4,5-b]pyridin-2-amine], 10 to 50 nM.

For `CN1CC[C@@H](n2nc(Nc3nc4ncc(Oc5cnn6ccnc6c5)c(Cl)c4n3C)cc2C(C)(C)C)C1` [Example I-36, (R)—N-(5-(tert-butyl)-1-(1-methylpyrrolidin-3-yl)-1H-pyrazol-3-yl)-7-chloro-6-(imidazo[1,2-b]pyridazin-7-yloxy)-1-methyl-1H-imidazo[4,5-b]pyridin-2-amine], the Kd lay within 50 to 1000 nM. With `CN1CC[C@H](n2nc(Nc3nc4ncc(Oc5cnc6scnc6c5)c(C(F)F)c4n3C)cc2C(C)(C)C)C1` [Example I-39, (S)—N-(5-(tert-butyl)-1-(1-methylpyrrolidin-3-yl)-1H-pyrazol-3-yl)-7-(difluoromethyl)-1-methyl-6-(thiazolo[5,4-b]pyridin-6-yloxy)-1H-imidazo[4,5-b]pyridin-2-amine] the figure was 10 to 50 nM.

Consider `CN1CC[C@@H](n2nc(Nc3nc4ncc(Oc5cnc6scnc6c5)c(C(F)F)c4n3C)cc2C(C)(C)C)C1` [Example I-40, (R)—N-(5-(tert-butyl)-1-(1-methylpyrrolidin-3-yl)-1H-pyrazol-3-yl)-7-(difluoromethyl)-1-methyl-6-(thiazolo[5,4-b]pyridin-6-yloxy)-1H-imidazo[4,5-b]pyridin-2-amine], for which the dissociation constant (Kd) fell in the range of 10 to 50 nM.

`Cn1c(Nc2cc(C(C)(C)C)n(C3CC4(COC4)C3)n2)nc2ncc(Oc3cnc4ccnn4c3)c(Cl)c21` [Example I-42, N-(5-(tert-butyl)-1-(2-oxaspiro[3.3]heptan-6-yl)-1H-pyrazol-3-yl)-7-chloro-1-methyl-6-(pyrazolo[1,5-a]pyrimidin-6-yloxy)-1H-imidazo[4,5-b]pyridin-2-amine] came in with a Kd of 10 to 50 nM. The same measure for `Cn1c(Nc2cc(C(C)(C)C)n([C@H]3CCN(CCF)C3)n2)nc2ncc(Oc3cnn4ccncc34)c(C(F)F)c21` [Example I-43, (S)—N-(5-(tert-butyl)-1-(1-(2-fluoroethyl)pyrrolidin-3-yl)-1H-pyrazol-3-yl)-7-(difluoromethyl)-1-methyl-6-(pyrazolo[1,5-a]pyrazin-3-yloxy)-1H-imidazo[4,5-b]pyridin-2-amine]: 10 to 50 nM. Regarding `Cn1c(Nc2cc(C(C)(C)C)n([C@@H]3CCN(CCF)C3)n2)nc2ncc(Oc3cnn4ccncc34)c(C(F)F)c21` [Example I-44, (R)—N-(5-(tert-butyl)-1-(1-(2-fluoroethyl)pyrrolidin-3-yl)-1H-pyrazol-3-yl)-7-(difluoromethyl)-1-methyl-6-(pyrazolo[1,5-a]pyrazin-3-yloxy)-1H-imidazo[4,5-b]pyridin-2-amine], the Kd was in the range of 50 to 1000 nM.

The molecule `COc1c(Oc2cnc3sccc3c2)cnc2nc(Nc3cc(C(C)(C)C)n([C@H]4CCN(C)C4)n3)n(C)c12` [Example I-45, (S)—N-(5-(tert-butyl)-1-(1-methylpyrrolidin-3-yl)-1H-pyrazol-3-yl)-7-methoxy-1-methyl-6-(thieno[2,3-b]pyridin-5-yloxy)-1H-imidazo[4,5-b]pyridin-2-amine] came in with a Kd of 10 to 50 nM. In turn, `COc1c(Oc2cnc3sccc3c2)cnc2nc(Nc3cc(C(C)(C)C)n([C@@H]4CCN(C)C4)n3)n(C)c12` [Example I-46, (R)—N-(5-(tert-butyl)-1-(1-methylpyrrolidin-3-yl)-1H-pyrazol-3-yl)-7-methoxy-1-methyl-6-(thieno[2,3-b]pyridin-5-yloxy)-1H-imidazo[4,5-b]pyridin-2-amine] yielded a Kd of 50 to 1000 nM.

In the case of `Cn1c(Nc2cc(C(C)(C)C)n(C3CC4(COC4)C3)n2)nc2ncc(Oc3cnn4ccncc34)c(Cl)c21` [Example I-49, N-(5-(tert-butyl)-1-(2-oxaspiro[3.3]heptan-6-yl)-1H-pyrazol-3-yl)-7-chloro-1-methyl-6-(pyrazolo[1,5-a]pyrazin-3-yloxy)-1H-imidazo[4,5-b]pyridin-2-amine], the Kd is below 10 nM. As for `COc1c(Oc2cnn3ccncc23)cnc2nc(Nc3cc(C(C)(C)C)n([C@H]4CCN(CCF)C4)n3)n(C)c12` [Example I-50, (S)—N-(5-(tert-butyl)-1-(1-(2-fluoroethyl)pyrrolidin-3-yl)-1H-pyrazol-3-yl)-7-methoxy-1-methyl-6-(pyrazolo[1,5-a]pyrazin-3-yloxy)-1H-imidazo[4,5-b]pyridin-2-amine], the Kd is 10 to 50 nM. The molecule `COCCN1CC[C@H](n2nc(Nc3nc4ncc(Oc5cnn6ccncc56)c(C(F)F)c4n3C)cc2C(C)(C)C)C1` [Example I-51, (S)—N-(5-(tert-butyl)-1-(1-(2-methoxyethyl)pyrrolidin-3-yl)-1H-pyrazol-3-yl)-7-(difluoromethyl)-1-methyl-6-(pyrazolo[1,5-a]pyrazin-3-yloxy)-1H-imidazo[4,5-b]pyridin-2-amine] displayed a Kd of 10 to 50 nM. Molecule `Cn1c(Nc2cc(C(C)(C)C)n(C3CC4(COC4)C3)n2)nc2ncc(Oc3cnn4ccncc34)c(C(F)F)c21` [Example I-53, N-(5-(tert-butyl)-1-(2-oxaspiro[3.3]heptan-6-yl)-1H-pyrazol-3-yl)-7-(difluoromethyl)-1-methyl-6-(pyrazolo[1,5-a]pyrazin-3-yloxy)-1H-imidazo[4,5-b]pyridin-2-amine] showed a Kd below 10 nM.

In the case of `Cn1c(Nc2cc(C(C)(C)C)n(CC#N)n2)nc2ncc(Oc3cnn4ccncc34)c(Cl)c21` [Example I-54, 2-(5-(tert-butyl)-3-((7-chloro-1-methyl-6-(pyrazolo[1,5-a]pyrazin-3-yloxy)-1H-imidazo[4,5-b]pyridin-2-yl)amino)-1H-pyrazol-1-yl)acetonitrile], the dissociation constant Kd was in the range of 10 to 50 nM.

`Cn1c(Nc2cc(C(C)(C)C)n([C@H]3C[C@H](O)C3)n2)nc2ncc(Oc3cnn4ccncc34)c(Cl)c21` [Example I-55, trans-3-(5-(tert-butyl)-3-((7-chloro-1-methyl-6-(pyrazolo[1,5-a]pyrazin-3-yloxy)-1H-imidazo[4,5-b]pyridin-2-yl)amino)-1H-pyrazol-1-yl)cyclobutan-1-ol] showed a Kd below 10 nM.

Molecule `Cn1cc(C2CC2)cc(Nc2nc3ncc(Oc4cnn5ccncc45)c(Cl)c3n2C)c1=O` [Example I-57, 3-((7-chloro-1-methyl-6-(pyrazolo[1,5-a]pyrazin-3-yloxy)-1H-imidazo[4,5-b]pyridin-2-yl)amino)-5-cyclopropyl-1-methylpyridin-2(1H)-one] had a Kd below 10 nM.

`COCCn1cc(C2CC2)cc(Nc2nc3ncc(Oc4cnn5ccncc45)c(OC)c3n2C)c1=O` [Example I-58, 5-cyclopropyl-3-((7-methoxy-1-methyl-6-(pyrazolo[1,5-a]pyrazin-3-yloxy)-1H-imidazo[4,5-b]pyridin-2-yl)amino)-1-(2-methoxyethyl)pyridin-2(1H)-one] returned a Kd below 10 nM.
